# Measurements reported in PubChem BioAssay AID2060602 (Molecular Pharmacology Branch, DTP, NCI, 2025).
# Several values for one entry are separate records, joined by “and”; a condition that tells them apart may be missing. Equal values may be shown once.
# System: 648629-189-R-J1-PDC complex spheroids viability
# Test: Anticancer human tumor 648629-189-R-J1-PDC patient-derived bladder carcinoma cell line growth inhibition [CLK]
# Details: for viability, T/C: stronger effect = lower value
# Text: A high-throughput screen of multi-cell type tumor spheroids was designed to identify active combinations of […] and targeted small molecules. Complex spheroids include a stromal component modeled by human endothelial cells (HUVEC) and fibroblasts modeled by human mesenchymal stem cells (MSCs). The concentration ranges selected for each drug and investigational agent were based upon clinically achievable concentrations if the clinical Cmax of the agent was known.
# Compounds. The drugs and investigational agents: cirtuvivint (SM08502; NSC835563), CC-671 (NSC850746), vemurafenib (NSC761431), tapotoclax (NSC804041), sotorasib (NSC818433), adagrasib (NSC831453), MRTX-1133 (NSC836407), BAY2416964 (NSC825713), copanlisib (NSC816437), inavolisib (NSC800729), abemaciclib (NSC768073), osimertinib (NSC779217), entinostat (NSC756642), eltanexor (KPT-8602, NSC794443), venetoclax (NSC766270), ceralasertib (NSC777638), bortezomib (NSC756655), olaparib (NSC753686), talazoparib (NSC767125), alisertib (NSC759677), peposertib (NSC802822), gemcitabine (NSC613327), 5-fluorouracil (NSC19893), SN-38 (NSC673596), oxaliplatin (NSC266046), paclitaxel (NSC125973), and doxorubicin (NSC123127), were obtained from the National Cancer Institute (NCI) Developmental Therapeutics Program Chemical Repository. The FDA-approved anticancer drug set is available from the Developmental Therapeutics Program at https://dtp.cancer.gov/organization/dscb/obtaining/available plates.htm. […] The stock solutions were prepared in dimethyl sulfoxide (DMSO, Sigma-Aldrich, St. Louis, MO, cat. D2650), except for the platinum complexes which were prepared in saline (Quality Biological, Gaithersburg, MD, cat. 114-055-101), at 800-fold the tested concentration and stored at -70 degrees C prior to their use. All drugs and investigational agents were tested over a range starting from a high concentration at or near the clinical Cmax and decreasing in half-log increments. If the clinical Cmax for an agent had not been determined, the highest concentration tested was 10 microM.
# Cell Culture. All cells were maintained in an incubator at 37 degrees C and 5% CO2 with 95% humidity. The PDC lines were cultured according to standard operating procedures established by the NCI PDMR. Briefly, all PDCs were thawed and cultured in Matrigel-coated flasks prepared with a working solution of 1X Ham's F-12 nutrient mix, without supplementation (Invitrogen, Waltham, MA, cat. 11765054), 100 U/mL penicillin-streptomycin (Invitrogen, cat. 15140122), and 2.5% Matrigel (Corning Inc., Corning, NY, cat. 354248) for the first three passages. The 947758-054-R-J2-PDC line was cultured in 6B/Colon 1A media, which includes advanced DMEM/F-12 (Thermo Fisher Scientific, cat. 12634028), 10 mM HEPES (Thermo Fisher Scientific, cat. 15630080), 1X GlutaMAX supplement (Thermo Fisher Scientific, cat. 35050061), 0.1 mg/mL primocin (InvivoGen, cat. ant-pm-2), 10% defined fetal bovine serum, heat inactivated (HyClone Laboratories Inc., cat. SH30070.03HI), 1.25 mM N-Acetyl-L-cysteine (Sigma-Aldrich, cat. A9165), 10 mM nicotinamide (Sigma-Aldrich, cat. N0636), 1X B-27 supplement (Thermo Fisher Scientific, cat. 17504044), 1X N-2 supplement (Thermo Fisher Scientific, cat. 17502048), and 10 microM Y-27632 dihydrochloride (Tocris Bioscience, cat. 1254). The 876862-298-R-J1-PDC was cultured in 6E media, which includes all 6B/Colon 1A media components plus 50% L-WRN conditioned media (ATCC, cat. CRL-3276), 50 ng/mL recombinant human EGF recombinant protein (hEGF; Thermo Fisher Scientific, cat. PHG0311), 10 ng/mL recombinant human fibroblast growth factor 10 (hGFG-10; PeproTech, cat. 100-26), 1 ng/mL recombinant human fibroblast growth factor 2 (hFGF-2; PeproTech, cat. 100-18B), and 1 µM prostaglandin E2 (PGE2; Tocris, cat. 2296). The 227483-062-R1-J1-PDC line was cultured in Panc media, containing all 6E components except hFGF-2, with the addition of 500 nM SB-431542 (Selleckchem, cat. S1067) and 10 nM gastrin (Tocris, cat. 3006). […]
# [1] = curve of first compound, second compound 0.0316 µM
# [2] = curve of first compound, second compound 0.1 µM
# [3] = curve of first compound, second compound 0.316 µM
# [4] = curve of first compound, second compound 1 µM
# [5] = curve of first compound, second compound 3.16 µM
# [6] = curve of first compound, second compound 10 µM
# 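Wherever viability, T/C is given: drug exposure lasted seven days before viability readout; 100% = DMSO vehicle control wells.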
compound,measurement,setting,value
Nc1ccccc1NC(=O)c1ccc(CNC(=O)OCc2cccnc2)cc1,"viability, T/C",compound 0.0316 µM,115% and 88%
same,"viability, T/C",compound 0.1 µM,92.5% and 91.6%
same,"viability, T/C",compound 0.316 µM,88.5% and 77.7%
same,"viability, T/C",compound 1 µM,72.7% and 64%
same,"viability, T/C",compound 3.16 µM,33% and 24.8%
same,"viability, T/C",compound 10 µM,4.51% and 3.32%
same,IC50,curve of compound,1950 nM and 1460 nM
CC(CO)NC(=O)c1cc(-c2ccc(Cl)cc2)nn(-c2cnn(C)c2)c1=O (stereo unspecified) + CN1CCN(c2cc(C(=O)Nc3cc4cc(-c5cnn(C)c5)ccc4cn3)ccn2)CC1,IC50,[1],> 10000 nM
same,IC50,[2],> 10000 nM
same,IC50,[3],< 31.6 nM
same,IC50,[4],< 31.6 nM
same,IC50,[5],< 31.6 nM
same,IC50,[6],< 31.6 nM
same,"viability, T/C","second compound 0.0316 µM, first compound 0.0316 µM",109%
same,"viability, T/C","second compound 0.0316 µM, first compound 0.1 µM",109%
same,"viability, T/C","second compound 0.0316 µM, first compound 0.316 µM",99.3%
same,"viability, T/C","second compound 0.0316 µM, first compound 1 µM",125%
same,"viability, T/C","second compound 0.0316 µM, first compound 3.16 µM",109%
same,"viability, T/C","second compound 0.0316 µM, first compound 10 µM",85.6%
same,"viability, T/C","second compound 0.1 µM, first compound 0.0316 µM",103%
same,"viability, T/C","second compound 0.1 µM, first compound 0.1 µM",100%
same,"viability, T/C","second compound 0.1 µM, first compound 0.316 µM",94.5%
same,"viability, T/C","second compound 0.1 µM, first compound 1 µM",114%
same,"viability, T/C","second compound 0.1 µM, first compound 3.16 µM",105%
same,"viability, T/C","second compound 0.1 µM, first compound 10 µM",84.7%
same,"viability, T/C","second compound 0.316 µM, first compound 0.0316 µM",38.1%
same,"viability, T/C","second compound 0.316 µM, first compound 0.1 µM",51.2%
same,"viability, T/C","second compound 0.316 µM, first compound 0.316 µM",44.7%
same,"viability, T/C","second compound 0.316 µM, first compound 1 µM",56.9%
same,"viability, T/C","second compound 0.316 µM, first compound 3.16 µM",47.2%
same,"viability, T/C","second compound 0.316 µM, first compound 10 µM",43.6%
same,"viability, T/C","second compound 1 µM, first compound 0.0316 µM",0.43%
same,"viability, T/C","second compound 1 µM, first compound 0.1 µM",0.37%
same,"viability, T/C","second compound 1 µM, first compound 0.316 µM",0.32%
same,"viability, T/C","second compound 1 µM, first compound 1 µM",0.48%
same,"viability, T/C","second compound 1 µM, first compound 3.16 µM",0.38%
same,"viability, T/C","second compound 1 µM, first compound 10 µM",0.26%
same,"viability, T/C","second compound 3.16 µM, first compound 0.0316 µM",0.14%
same,"viability, T/C","second compound 3.16 µM, first compound 0.1 µM",0.17%
same,"viability, T/C","second compound 3.16 µM, first compound 0.316 µM",0.16%
same,"viability, T/C","second compound 3.16 µM, first compound 1 µM",0.18%
same,"viability, T/C","second compound 3.16 µM, first compound 3.16 µM",0.17%
same,"viability, T/C","second compound 3.16 µM, first compound 10 µM",0.18%
same,"viability, T/C","second compound 10 µM, first compound 0.0316 µM",0.22%
same,"viability, T/C","second compound 10 µM, first compound 0.1 µM",0.25%
same,"viability, T/C","second compound 10 µM, first compound 0.316 µM",0.22%
same,"viability, T/C","second compound 10 µM, first compound 1 µM",0.23%
same,"viability, T/C","second compound 10 µM, first compound 3.16 µM",0.24%
same,"viability, T/C","second compound 10 µM, first compound 10 µM",0.22%
C=CC(=O)Nc1cc(Nc2nccc(-c3cn(C)c4ccccc34)n2)c(OC)cc1N(C)CCN(C)C + CNC(=O)c1ccc(Nc2nc(OC3CCCC3)c3c(-c4ccc5nc(C)oc5c4)c[nH]c3n2)c(OC)c1,IC50,[1],> 300 nM
same,IC50,[2],132 nM
same,IC50,[3],< 0.949 nM
same,IC50,[4],< 0.949 nM
same,IC50,[5],< 0.949 nM
same,IC50,[6],< 0.949 nM
same,"viability, T/C","second compound 0.0316 µM, first compound 0.000949 µM",92.6%
same,"viability, T/C","second compound 0.0316 µM, first compound 0.003 µM",103%
same,"viability, T/C","second compound 0.0316 µM, first compound 0.00949 µM",102%
same,"viability, T/C","second compound 0.0316 µM, first compound 0.03 µM",97.1%
same,"viability, T/C","second compound 0.0316 µM, first compound 0.0949 µM",100%
same,"viability, T/C","second compound 0.0316 µM, first compound 0.3 µM",95.4%
same,"viability, T/C","second compound 0.1 µM, first compound 0.000949 µM",83.9%
same,"viability, T/C","second compound 0.1 µM, first compound 0.003 µM",73.5%
same,"viability, T/C","second compound 0.1 µM, first compound 0.00949 µM",69.3%
same,"viability, T/C","second compound 0.1 µM, first compound 0.03 µM",66.2%
same,"viability, T/C","second compound 0.1 µM, first compound 0.0949 µM",51%
same,"viability, T/C","second compound 0.1 µM, first compound 0.3 µM",42.6%
same,"viability, T/C","second compound 0.316 µM, first compound 0.000949 µM",27.9%
same,"viability, T/C","second compound 0.316 µM, first compound 0.003 µM",27.3%
same,"viability, T/C","second compound 0.316 µM, first compound 0.00949 µM",21.8%
same,"viability, T/C","second compound 0.316 µM, first compound 0.03 µM",19%
same,"viability, T/C","second compound 0.316 µM, first compound 0.0949 µM",22.1%
same,"viability, T/C","second compound 0.316 µM, first compound 0.3 µM",15.5%
same,"viability, T/C","second compound 1 µM, first compound 0.000949 µM",21.3%
same,"viability, T/C","second compound 1 µM, first compound 0.003 µM",19.4%
same,"viability, T/C","second compound 1 µM, first compound 0.00949 µM",23.2%
same,"viability, T/C","second compound 1 µM, first compound 0.03 µM",16.1%
same,"viability, T/C","second compound 1 µM, first compound 0.0949 µM",16.5%
same,"viability, T/C","second compound 1 µM, first compound 0.3 µM",13.2%
same,"viability, T/C","second compound 3.16 µM, first compound 0.000949 µM",18.7%
same,"viability, T/C","second compound 3.16 µM, first compound 0.003 µM",19.8%
same,"viability, T/C","second compound 3.16 µM, first compound 0.00949 µM",16.6%
same,"viability, T/C","second compound 3.16 µM, first compound 0.03 µM",16.1%
same,"viability, T/C","second compound 3.16 µM, first compound 0.0949 µM",16.3%
same,"viability, T/C","second compound 3.16 µM, first compound 0.3 µM",14.8%
same,"viability, T/C","second compound 10 µM, first compound 0.000949 µM",18.5%
same,"viability, T/C","second compound 10 µM, first compound 0.003 µM",22.1%
same,"viability, T/C","second compound 10 µM, first compound 0.00949 µM",22.6%
same,"viability, T/C","second compound 10 µM, first compound 0.03 µM",17.6%
same,"viability, T/C","second compound 10 µM, first compound 0.0949 µM",17.9%
same,"viability, T/C","second compound 10 µM, first compound 0.3 µM",13.8%
